Non-standard residues stand in square brackets, D forms with d. Residues, ends and D or L forms follow the SMILES beside them. Pen = CC(C)(S)[C@H](N)C(=O)O; βAla = NCCC(=O)O
Assays:
CD1 mice = experiment: Intestinotrophic activity assessment: small bowel weight in mice; assay type: in vivo; settings: for % Activity (small bowel inducing activity relative to native rat GLP-2(1-33) = 100%): mice, as Example 4; for % Increase in small bowel weight: CD1 mice, 2.5 μg peptide s.c. b.i.d. in PBS, sacrificed 10 or 14 days, relative to vehicle only
Procedure: Recipients were CD1 mice obtained from Charles River Laboratory (Ontario, Canada). The CD1 mice were aged-matched females at time of injection (n=3-4 per group), 6 weeks of age, unless otherwise specified. The animals were allowed a minimum of 24 hours to acclimatize to the laboratory facility before the initiation of each experiment. Animals were identified by ear punch. The mice were not restricted by diet or activity during the experiments. The light/dark cycle was 12 hours, between 6 pm to 6 am. Controls were age- and sex-matched (n=3-4) animals. Mice were injected subcutaneously, twice a day (b.i.d.), with 2.5 μg peptide in a total volume of 0.5 cc of PBS and were monitored daily in the laboratory facility. Animals were sacrificed 10 or 14 days after injection, and were fasted at least 20 hours before sacrifice.
The mice were anaesthetised with CO2 and exsanguinated by cardiac puncture. Blood was collected in 75 μl of TED (Trasysol; EDTA (5000 KIU/ml: 1.2 mg/ml; Diprotin-A), and the blood was centrifuged at 14 k×g for 5 minutes and the plasma was stored at −70 prior to analysis. The small bowel was removed from the peritoneal cavity, from pylorus to cecum, cleaned weighed and measured. For comparative purpose, sections from each animal were obtained from the identical anatomical position. Fragments each measuring 1.5-2.0 cm in length were obtained 8±2 cm, 18±2 cm, 32±2 cm from pylorus for histomorphometry representing proximal jejunum, distal jejunum and distal ileum. Each small bowel fragment was opened longitudinally on its antimesenteric border in a tissue block and then placed on 10% formalin (vol./vol.) overnight, then transferred to 70% […].
Percentage change in small bowel weight was calculated by dividing the mean change in bowel weight of analog treated mice, relative to mice treated with vehicle only, by the mean bowel weight of mice treated with vehicle only, and multiplying this figure by 100.
Experiments assessing the small bowel inducing activity of various analogs was repeated as described above for Example 4. In these experiments, the small bowel inducing activity of each analog in mice was calculated relative to that of native rat GLP-2(1-33) (expressed as 100% of activity). Resistance of analogs to DPP-IV cleavage was performed as described above in Example 3.

DPP-IV = DPP-IV (Homo sapiens, UniProt P27487); experiment: Assay for resistance to dipeptidyl peptidase IV (RP-HPLC of cleavage product); settings: human, isolated human placental DPP-IV (dipeptidyl peptidase IV), pH 7.4, % Cleaved by DPP-IV, as Example 3: human placental DPP-IV, 37° C., PBS pH 7.4
Sequence of DPP-IV (P27487 whole entry): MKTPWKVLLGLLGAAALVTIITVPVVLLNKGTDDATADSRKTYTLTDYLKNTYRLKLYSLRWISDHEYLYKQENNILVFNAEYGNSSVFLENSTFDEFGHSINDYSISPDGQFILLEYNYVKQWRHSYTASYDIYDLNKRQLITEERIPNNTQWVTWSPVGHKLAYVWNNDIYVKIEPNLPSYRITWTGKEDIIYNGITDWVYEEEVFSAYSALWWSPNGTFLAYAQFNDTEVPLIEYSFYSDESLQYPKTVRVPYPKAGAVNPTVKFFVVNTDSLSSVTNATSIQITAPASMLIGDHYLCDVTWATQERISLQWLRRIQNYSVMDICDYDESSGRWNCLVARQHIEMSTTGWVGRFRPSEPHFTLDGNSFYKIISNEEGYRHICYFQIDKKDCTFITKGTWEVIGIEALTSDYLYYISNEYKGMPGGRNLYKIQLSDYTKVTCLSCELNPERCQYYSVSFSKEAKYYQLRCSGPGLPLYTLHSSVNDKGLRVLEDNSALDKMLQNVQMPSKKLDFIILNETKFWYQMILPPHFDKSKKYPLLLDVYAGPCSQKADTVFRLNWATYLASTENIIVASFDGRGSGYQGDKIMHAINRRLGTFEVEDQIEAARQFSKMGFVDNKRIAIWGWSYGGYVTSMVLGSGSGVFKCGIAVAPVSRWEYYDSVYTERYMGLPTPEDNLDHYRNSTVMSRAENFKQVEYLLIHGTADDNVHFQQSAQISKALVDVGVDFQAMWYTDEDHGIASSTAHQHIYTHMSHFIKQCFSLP

Molecule	metabolised at 24 h, 0.19 mg/ml (DPP-IV)	% Activity (small bowel inducing activity relative to native rat GLP-2(1-33) = 100%) (CD1 mice)	% Increase in small bowel weight (CD1 mice)
CC[C@H](C)[C@H](NC(=O)[C@H](Cc1ccccc1)NC(=O)[C@H](CC(=O)O)NC(=O)[C@H](CCCNC(=N)N)NC(=O)[C@H](C)NC(=O)[C@H](C)NC(=O)[C@H](CC(C)C)NC(=O)[C@H](CC(N)=O)NC(=O)[C@H](CC(=O)O)NC(=O)[C@H](CC(C)C)NC(=O)[C@@H](NC(=O)[C@@H](NC(=O)[C@H](CC(N)=O)NC(=O)[C@H](CCSC)NC(=O)[C@H](CCC(=O)O)NC(=O)[C@H](CC(=O)O)NC(=O)[C@H](CO)NC(=O)[C@H](Cc1ccccc1)NC(=O)[C@H](CO)NC(=O)CNC(=O)[C@H](CC(=O)O)NC(=O)[C@@H](C)NC(=O)[C@@H](N)Cc1c[nH]cn1)[C@@H](C)O)[C@@H](C)CC)C(=O)N[C@@H](CC(N)=O)C(=O)N[C@@H](Cc1c[nH]c2ccccc12)C(=O)N[C@@H](CC(C)C)C(=O)N[C@H](C(=O)N[C@@H](CCC(N)=O)C(=O)N[C@H](C(=O)N[C@@H](CCCCN)C(=O)N[C@H](C(=O)N[C@H](C(=O)N[C@@H](CC(=O)O)C(=O)O)[C@@H](C)O)[C@@H](C)CC)[C@@H](C)O)[C@@H](C)CC [[D-Ala2]hGLP-2(1-33)]	0%	130%	–
H-HQDGSFSDEMNTILDNLAARDFINWLIQTKITD-OH [[Gln2]hGLP-2(1-33)]	0%	100%	–
H-HGDGAFSDEMNTILDNLAARDFINWLIQTKITD-OH [[Gly2,Ala5]hGLP-2(1-33)]	0%	136%	38%
H-HADGAFADEMNTILDNLAARDFINWLIQTKITD-OH [[Ala5, Ala7]hGLP-2(1-33)]	77%	108%	–
H-HGDASFSDEMNTILDNLAARDFINWLIQTKITD-OH [[Gly2,Ala4]hGLP-2(1-33)]	0%	100%	36%
CC[C@H](C)[C@H](NC(=O)[C@H](Cc1ccccc1)NC(=O)[C@H](CC(=O)O)NC(=O)[C@H](CCCNC(=N)N)NC(=O)[C@H](C)NC(=O)[C@H](C)NC(=O)[C@H](CC(C)C)NC(=O)[C@H](CC(N)=O)NC(=O)[C@H](CC(=O)O)NC(=O)[C@H](CC(C)C)NC(=O)[C@@H](NC(=O)[C@@H](NC(=O)[C@H](CC(N)=O)NC(=O)[C@H](CCSC)NC(=O)[C@H](CCC(=O)O)NC(=O)[C@H](CC(=O)O)NC(=O)[C@H](CO)NC(=O)[C@H](Cc1ccccc1)NC(=O)[C@H](CO)NC(=O)CNC(=O)[C@H](CC(=O)O)NC(=O)CNC(=O)[C@@H](N)Cc1c[nH]cn1)[C@@H](C)O)[C@@H](C)CC)C(=O)N[C@@H](CC(N)=O)C(=O)N[C@@H](Cc1c[nH]c2ccccc12)C(=O)N[C@@H](CC(C)C)C(=O)N[C@H](C(=O)N[C@@H](CCC(N)=O)C(=O)N[C@H](C(=O)N[C@@H](CCCCN)C(=O)N[C@H](C(=O)N[C@H](C(=O)N[C@@H](CC(=O)O)C(=O)N[C@@H](Cc1ccc(O)cc1)C(=O)O)[C@@H](C)O)[C@@H](C)CC)[C@@H](C)O)[C@@H](C)CC [[Gly2, Tyr34]hGLP-2(1-34)]	0%	297%	–
H-AGDGSFSDEMNTILDNLAARDFINWLIQTKITD-OH [[Ala1,Gly2]hGLP-2(1-33)]	0%	53%	23%
H-HIDGSFSDEMNTILDNLAARDFINWLIQTKITD-OH [[Ile2]hGLP-2(1-33)]	0%	90%	–

The next lines start with results.

metabolised at 24 h, 0.19 mg/ml (DPP-IV)	Molecule	% Activity (small bowel inducing activity relative to native rat GLP-2(1-33) = 100%) (CD1 mice)	% Increase in small bowel weight (CD1 mice)
20%	CC[C@H](C)[C@H](NC(=O)[C@H](Cc1ccccc1)NC(=O)[C@H](CC(=O)O)NC(=O)[C@H](CCCNC(=N)N)NC(=O)[C@H](C)NC(=O)[C@H](C)NC(=O)[C@H](CC(C)C)NC(=O)[C@H](CC(N)=O)NC(=O)[C@H](CC(=O)O)NC(=O)[C@H](CC(C)C)NC(=O)[C@@H](NC(=O)[C@@H](NC(=O)[C@H](CC(N)=O)NC(=O)[C@H](CCSC)NC(=O)[C@H](CCC(=O)O)NC(=O)[C@H](CC(=O)O)NC(=O)[C@H](CO)NC(=O)[C@H](Cc1ccccc1)NC(=O)[C@H](CO)NC(=O)CNC(=O)[C@H](CC(=O)O)NC(=O)[C@@H](NC(=O)[C@@H](N)Cc1c[nH]cn1)C(C)(C)S)[C@@H](C)O)[C@@H](C)CC)C(=O)N[C@@H](CC(N)=O)C(=O)N[C@@H](Cc1c[nH]c2ccccc12)C(=O)N[C@@H](CC(C)C)C(=O)N[C@H](C(=O)N[C@@H](CCC(N)=O)C(=O)N[C@H](C(=O)N[C@@H](CCCCN)C(=O)N[C@H](C(=O)N[C@H](C(=O)N[C@@H](CC(=O)O)C(=O)O)[C@@H](C)O)[C@@H](C)CC)[C@@H](C)O)[C@@H](C)CC [[Pen2]hGLP-2(1-33)] (H-H[Pen]DGSFSDEMNTILDNLAARDFINWLIQTKITD-OH)	58%	–
0%	H-YGDGSFSDEMNTILDNLAARDFINWLIQTKITD-OH [[Tyr1, Gly2]hGLP-2(1-33)]	241%	–
0%	H-HKDGSFSDEMNTILDNLAARDFINWLIQTKITD-OH [[Lys2]hGLP-2(1-33)]	90%	–
0%	CC[C@H](C)[C@H](NC(=O)[C@H](Cc1ccccc1)NC(=O)[C@H](CC(=O)O)NC(=O)[C@H](CCCNC(=N)N)NC(=O)[C@H](C)NC(=O)[C@H](C)NC(=O)[C@H](CC(C)C)NC(=O)[C@H](CC(N)=O)NC(=O)[C@H](CC(=O)O)NC(=O)[C@H](CC(C)C)NC(=O)[C@@H](NC(=O)[C@@H](NC(=O)[C@H](CC(N)=O)NC(=O)[C@H](CCSC)NC(=O)[C@H](CCC(=O)O)NC(=O)[C@H](CC(=O)O)NC(=O)[C@H](CO)NC(=O)[C@H](Cc1ccccc1)NC(=O)[C@H](CO)NC(=O)CNC(=O)[C@H](CC(=O)O)NC(=O)CCNC(=O)[C@@H](N)Cc1c[nH]cn1)[C@@H](C)O)[C@@H](C)CC)C(=O)N[C@@H](CC(N)=O)C(=O)N[C@@H](Cc1c[nH]c2ccccc12)C(=O)N[C@@H](CC(C)C)C(=O)N[C@H](C(=O)N[C@@H](CCC(N)=O)C(=O)N[C@H](C(=O)N[C@@H](CCCCN)C(=O)N[C@H](C(=O)N[C@H](C(=O)N[C@@H](CC(=O)O)C(=O)O)[C@@H](C)O)[C@@H](C)CC)[C@@H](C)O)[C@@H](C)CC [[bAla2]hGLP-2(1-33)] (H-H[βAla]DGSFSDEMNTILDNLAARDFINWLIQTKITD-OH)	118%	–
0%	H-HYDGSFSDEMNTILDNLAARDFINWLIQTKITD-OH [[Tyr2]hGLP-2(1-33)]	57%	–
16%	H-HPDGSFSDEMNTILDNLAARDFINWLIQTKITD-OH [[Pro2]hGLP-2(1-33)]	50%	–
0%	H-HTDGSFSDEMNTILDNLAARDFINWLIQTKITD-OH [[Thr2]hGLP-2(1-33)]	117%	–
